Measured values from patent US20120148647A1, “Photoresponsive Sunscreen Composition” (Blueshift Pharma GmbH, priority 2009, published 2012).
Where two headings read alike, the source gives them in different places.

Columns and labels:
[1] = UV absorbance spectra in protonated and deprotonated form (different pH, or before and after HCl); type: physicochemical; settings: FIGS. 1 to 4
Description: Methods to determine if a given sunscreen agent measurably changes its absorbance of UV radiation upon protonation or deprotonation will be readily available to the skilled person, but include a method summarised by the following steps. First, identify a suitable solvent for said sunscreen agent. Such a solvent may be hydrophilic (eg water or glycerine) organic/protic (eg ethanol, isopropanol or octanol), organic/polar aprotic (eg DMSO, acetonitrile or dichloromethane) or organic/unipolar (eg hexane, hexadecane or diethylether). Second, record the UV-Visible (200 nm-800 nm) absorbance spectra of a solution of the sunscreen agent using a suitable photospectrometer (such as a Beckmann DU-640 Spectrometer as described in the examples herein). Third, take an aliquot of the sunscreen UV filter solution and add a strong acid (eg trifluoroacetic acid, or hydrochloric acid, or perchloric acid) and record its UV-Visible absorbance spectra. Neutralize with a base (see next step) to check for reversibility and record the UV-Visible absorbance spectra again. Fourth, take another aliquot of the sunscreen UV filter solution and add a strong base (eg NaOH, KOH, Triethylamine, Tris(hydroxymethyl)aminomethane (TRIS)) and record its UV-Visible absorbance spectra. Neutralize with an acid (see previous step) to check for reversibility and record the resulting UV-Visible absorbance spectra. Fifth, repeat the above steps with (a) more than one acid, (b) more than one base and (c) more than one solvent to exclude artifacts from specific UV-filter-ion interactions, or specific UV-filter-solvent interactions. Conclusion: measureable changes in UV absorbance that are observed in one or more of such repeat experiments for a give sunscreen agent identify that such sunscreen agent is a suitable sunscreen agent for use in the context of the present invention.
The pH was adjusted with NaOH/HCl in aqueous solution.

[2] = Predicted SPF calculated from absorption spectra; type: physicochemical
Description: Predicted SPFs can be accurately determined from absorption spectra using standardized calculations based on the erythemal action spectrum, and such predicted SPFs correlate very well with in vivo determined SPFs. Corresponding algorithms for calculating SPF values are known in the art and corresponding computer programs are available; see, for example, http://www.sunscreensimulator.basf.com/Sunscreen_Simulator. Using the absorption spectrum shown in FIG. 2, the predicted SPF of a composition containing the deprotonated form of Padimate-O is approximately 10-fold higher than that of a composition containing the protonated form. With Benzophenone-4 (FIG. 1), the protonated form provides a composition having approximately 3 times the SPF as a composition containing the deprotonated form.

[3] = excited state after light absorption; cited from earlier work
[4] = cited from earlier work

SMILES: CCCCCCOC(=O)c1ccccc1C(=O)c1ccc(N(CC)CC)cc1O [2-(4-diethylamino-2-hydroxybenzoyl)-benzoic acid hexylester]
- effect of protonation state on UV absorption [1]: largely inactive in its protonated form

SMILES: COc1cc(O)c(C(=O)c2ccccc2)cc1S(=O)(=O)O [Benzophenone-4]
- SPF of composition with protonated form relative to deprotonated form ([2]; from absorption spectra of FIG. 1 (ethanol/water, pH 5 to 12)): approximately 3 times
- effect of protonation state on UV absorption [1]: protonated state being the from that absorbs more UVB radiation

SMILES: Oc1cccc2ccccc12 [Example 1-naphthol, 1-naphthol]
- pKa in the excited state [3]: 0.4

SMILES: Nc1ccc(C(=O)O)cc1 [PABA, p-aminobenzoic acid]
- effect of protonation state on UV absorption [1]: absorbs less UV radiation

SMILES: CCCCC(CC)COC(=O)c1ccc(N(C)C)cc1 (stereo not drawn) [Padimate-O, Ethylhexyl Dimethyl PABA]
- predicted SPF of composition with deprotonated form relative to protonated form ([2]; from absorption spectrum of FIG. 2 (acetonitrile, before/after equimolar HCl)): approximately 10 fold
- effect of protonation state on UV absorption [1]: shifts the absorption maximum of padimate-O from the UVB region to UVC

SMILES: COc1ccc(C(=O)c2ccccc2)c(O)c1 [oxybenzone]
- oxybenzone degraded ([4]; irradiation of oxybenzone and titanium dioxide, after 20 min of UV exposure): about 70%
- oxybenzone degraded ([4]; solution containing oxybenzone alone, after 260 min): 50%
